Test results: article PMC8876276 (Pharmaceutics, 2022)

Assays:
[1] = tested on: GLP1R association with early endosomal-associated antigen 1 (EEA1); experiment: GLP1R colocalization with early endosome marker EEA1, confocal microscopy, GLP1R-HEK293 cells; type: cell-based; conditions: 100 nM, 30 min; Pearson's correlation coefficient, 3 independent experiments; Figure 5d
Description: For immunofluorescence microscopy, GLP1R-HEK293 cells were seeded at a density of 25,000 cells/well in 96-well imaging plates (Greiner Bio-One) coated with poly-D-lysine. […] Twenty-four hours later, the cells were washed once with Optimem + Glutamax (Thermo Fisher Scientific, Watham, MA, USA) + 0.1% bovine serum albumin (BSA) (Sigma-Aldrich, St. Louis, MO, USA), and then incubated with Optimem + 0.1% BSA for 15 min at 37 °C. Compounds were diluted in Optimem + 0.1% BSA and cell incubations were performed at 37 °C for the timepoints indicated. The compounds were removed and the cells were washed three times with phosphate-buffered saline (PBS) prior to fixation for immunofluorescence microscopy or electron microscopy/NanoSIMS as described below. […]
Analysis of confocal microscopy micrographs was performed using scripts developed in Columbus analysis software (PerkinElmer, Waltham, MA, USA). […] Mean fluorescence intensity for the GLP1R staining was measured from this cell membrane ROI. Fluorescence intensities were normalized to those measured from untreated cells and expressed as mean per cell per well. For colocalization analyses, Pearson’s correlation co-efficient was calculated for the correlation between the red and green channels and expressed as mean per cell per well. […]
Pearson’s correlation co-efficient for GLP1R colocalization with EEA1 was calculated from cytoplasmic ROIs (d). […]

[2] = tested on: GLP1R localization with the late endosome marker LAMP1; experiment: GLP1R colocalization with late endosome marker LAMP1, confocal microscopy, GLP1R-HEK293 cells; type: cell-based; conditions: 100 nM, 30 min; Pearson's correlation coefficient, 3 independent experiments; Figure 6d
Excerpt: Nuclei were counterstained with DAPI. Nuclei were counterstained with DAPI.

## exenatide
[1]
  GLP1R colocalization with EEA1: GLP1R colocalization with EEA1 was observed
[2]
  GLP1R colocalization with LAMP1: increase in the GLP1R colocalization with LAMP1
